According to ChEMBL document CHEMBL1201862, “PubChem BioAssay data set” (2004):
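48-hour exposure; five concentrations; linearly interpolated endpoints. GI50 is the concentration that inhibits growth by half.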 The source made the active and inactive calls. Rule as the data show it: active = GI50 up to about 1.1 µM and inactive = higher.

How the values were obtained:
Assay in all cases: inhibition of tumour cell growth, NCI panel, 48 h
A549 = test system: A549
ACHN = test system: ACHN
DU-145 = test system: DU-145
HCC 2998 = test system: HCC 2998
HOP-92 = test system: HOP-92
K562 = test system: K562
MDA-N = test system: MDA-N
Malme-3M = test system: Malme-3M
NCI-H522 = test system: NCI-H522
NCI/ADR-RES = test system: NCI/ADR-RES
SF-268 = test system: SF-268
SF-539 = test system: SF-539
SK-MEL-28 = test system: SK-MEL-28
SK-MEL-5 = test system: SK-MEL-5
SK-OV-3 = test system: SK-OV-3
SW-620 = test system: SW-620
TK-10 = test system: TK-10
UO-31 = test system: UO-31
CCRF-CEM = test system: CCRF-CEM
BT-549 = test system: BT-549

Measured: GI50

O=C(/C=C/c1ccc(O)c(O)c1O)OCCc1ccccc1
inactive: A549 26.2 µM | ACHN 39.2 µM | DU-145 > 100 µM | HCC 2998 > 100 µM | HOP-92 56.1 µM | K562 11.6 µM | MDA-N 13 µM | Malme-3M > 100 µM | NCI-H522 27.9 µM | NCI/ADR-RES 29.8 µM | SF-268 32.1 µM | SF-539 37.3 µM | SK-MEL-28 > 100 µM | SK-MEL-5 > 100 µM | SK-OV-3 90.8 µM | SW-620 20.9 µM | TK-10 83.2 µM | UO-31 38.7 µM

N/N=C1/CCCc2nonc21
inactive: A549 > 100 µM | ACHN > 100 µM | CCRF-CEM > 100 µM | DU-145 > 100 µM | HCC 2998 > 100 µM | HOP-92 > 100 µM | K562 > 100 µM | MDA-N > 100 µM | Malme-3M > 100 µM | NCI/ADR-RES > 100 µM | SF-268 > 100 µM | SF-539 > 100 µM | SK-MEL-28 > 100 µM | SK-MEL-5 > 100 µM | SK-OV-3 > 100 µM | SW-620 > 100 µM | TK-10 > 100 µM

CC(Oc1ccc(Cl)cc1Cl)C(=O)NN1C(=O)CC(=O)N(c2ccccc2)C1=S (configuration not stated)
inactive: A549 47.6 µM | ACHN 48.1 µM | BT-549 59.6 µM | DU-145 53.3 µM | HCC 2998 63.4 µM | HOP-92 24.9 µM | K562 41.7 µM | Malme-3M > 100 µM | NCI-H522 31.5 µM | NCI/ADR-RES 39.9 µM | SF-268 95.1 µM | SF-539 > 100 µM | SK-MEL-28 98.6 µM | SK-MEL-5 47.4 µM | SK-OV-3 > 100 µM | SW-620 53.1 µM | TK-10 > 100 µM | UO-31 64.7 µM

CC(=O)C1=C(C)N(c2ccc(C)cc2)C2(O)C3=C(C(=O)c4ccccc4C3=O)C(O)=CC12Cl (configuration not stated)
inactive: A549 17.5 µM | ACHN 15.4 µM | BT-549 15 µM | DU-145 24.7 µM | HCC 2998 12.7 µM | HOP-92 43.8 µM | K562 7.43 µM | Malme-3M 10.5 µM | NCI-H522 6.14 µM | NCI/ADR-RES 5.65 µM | SF-268 23.6 µM | SF-539 12.2 µM | SK-MEL-28 10.2 µM | SK-MEL-5 6.92 µM | SK-OV-3 55.1 µM | SW-620 9.86 µM | TK-10 28.4 µM | UO-31 11.1 µM

C(=C\C(SCc1ccccc1)SCc1ccccc1)/c1ccccc1
inactive: A549 > 10 µM | ACHN > 10 µM | CCRF-CEM > 10 µM | DU-145 > 10 µM | HCC 2998 > 10 µM | HOP-92 > 10 µM | K562 > 10 µM | MDA-N > 10 µM | Malme-3M > 10 µM | NCI-H522 > 10 µM | NCI/ADR-RES > 10 µM | SF-268 > 10 µM | SF-539 > 10 µM | SK-MEL-28 > 10 µM | SK-MEL-5 > 10 µM | SK-OV-3 > 10 µM | SW-620 > 10 µM | TK-10 > 10 µM | UO-31 > 10 µM

C/C(O[Si](C(C)C)(C(C)C)C(C)C)=C(\C)C(=O)N(C)c1ccccc1Cl
inactive: A549 > 100 µM | ACHN > 100 µM | BT-549 > 100 µM | DU-145 > 100 µM | HOP-92 > 100 µM | Malme-3M > 100 µM | NCI-H522 73.8 µM | NCI/ADR-RES > 100 µM | SF-268 > 100 µM | SF-539 > 100 µM | SK-MEL-28 > 100 µM | SK-MEL-5 > 100 µM | SW-620 > 100 µM | TK-10 > 100 µM | UO-31 > 100 µM

C/C(=C\CNc1nc(Cl)nc2[nH]cnc12)CO
inactive: A549 > 100 µM | ACHN > 100 µM | CCRF-CEM > 100 µM | DU-145 > 100 µM | HCC 2998 > 100 µM | HOP-92 > 100 µM | K562 > 100 µM | MDA-N > 100 µM | Malme-3M > 100 µM | NCI-H522 > 100 µM | NCI/ADR-RES > 100 µM | SF-268 > 100 µM | SF-539 > 100 µM | SK-MEL-28 > 100 µM | SK-MEL-5 > 100 µM | SK-OV-3 > 100 µM | SW-620 > 100 µM | TK-10 > 100 µM | UO-31 > 100 µM

COc1cc(OC2OC(CO)C(O)C(O)C2O)c2c(c1)O[C@@H]1[C@H](O)Oc3cc(OC)c(OC)cc3[C@]1(O)C2=O (some centres not stated)
inactive: A549 > 25 µM | ACHN > 25 µM | CCRF-CEM > 25 µM | DU-145 > 25 µM | HCC 2998 > 25 µM | HOP-92 > 25 µM | K562 > 25 µM | MDA-N > 25 µM | NCI-H522 > 25 µM | NCI/ADR-RES > 25 µM | SF-268 > 25 µM | SF-539 > 25 µM | SK-MEL-28 > 25 µM | SK-MEL-5 > 25 µM | SK-OV-3 > 25 µM | SW-620 > 25 µM | TK-10 > 25 µM | UO-31 > 25 µM
